Experimental data: PMC7611167 (Journal of medicinal chemistry, 2019)

Key:
[1] = system: A/Puerto Rico/8/34 (H1N1); assay type: cell-based, influenza A virus
aldehyde oxidase (AO) = target: T1, aldehyde oxidase (AO) (Homo sapiens, UniProt Q06278); assay: Aldehyde oxidase metabolism in human liver cytosol; assay type: in vitro ADME; conditions: 1 μM, 1 mg/mL protein, 37°C, up to 60 minutes, with or without Raloxifene
T1 sequence (Q06278 1-1338): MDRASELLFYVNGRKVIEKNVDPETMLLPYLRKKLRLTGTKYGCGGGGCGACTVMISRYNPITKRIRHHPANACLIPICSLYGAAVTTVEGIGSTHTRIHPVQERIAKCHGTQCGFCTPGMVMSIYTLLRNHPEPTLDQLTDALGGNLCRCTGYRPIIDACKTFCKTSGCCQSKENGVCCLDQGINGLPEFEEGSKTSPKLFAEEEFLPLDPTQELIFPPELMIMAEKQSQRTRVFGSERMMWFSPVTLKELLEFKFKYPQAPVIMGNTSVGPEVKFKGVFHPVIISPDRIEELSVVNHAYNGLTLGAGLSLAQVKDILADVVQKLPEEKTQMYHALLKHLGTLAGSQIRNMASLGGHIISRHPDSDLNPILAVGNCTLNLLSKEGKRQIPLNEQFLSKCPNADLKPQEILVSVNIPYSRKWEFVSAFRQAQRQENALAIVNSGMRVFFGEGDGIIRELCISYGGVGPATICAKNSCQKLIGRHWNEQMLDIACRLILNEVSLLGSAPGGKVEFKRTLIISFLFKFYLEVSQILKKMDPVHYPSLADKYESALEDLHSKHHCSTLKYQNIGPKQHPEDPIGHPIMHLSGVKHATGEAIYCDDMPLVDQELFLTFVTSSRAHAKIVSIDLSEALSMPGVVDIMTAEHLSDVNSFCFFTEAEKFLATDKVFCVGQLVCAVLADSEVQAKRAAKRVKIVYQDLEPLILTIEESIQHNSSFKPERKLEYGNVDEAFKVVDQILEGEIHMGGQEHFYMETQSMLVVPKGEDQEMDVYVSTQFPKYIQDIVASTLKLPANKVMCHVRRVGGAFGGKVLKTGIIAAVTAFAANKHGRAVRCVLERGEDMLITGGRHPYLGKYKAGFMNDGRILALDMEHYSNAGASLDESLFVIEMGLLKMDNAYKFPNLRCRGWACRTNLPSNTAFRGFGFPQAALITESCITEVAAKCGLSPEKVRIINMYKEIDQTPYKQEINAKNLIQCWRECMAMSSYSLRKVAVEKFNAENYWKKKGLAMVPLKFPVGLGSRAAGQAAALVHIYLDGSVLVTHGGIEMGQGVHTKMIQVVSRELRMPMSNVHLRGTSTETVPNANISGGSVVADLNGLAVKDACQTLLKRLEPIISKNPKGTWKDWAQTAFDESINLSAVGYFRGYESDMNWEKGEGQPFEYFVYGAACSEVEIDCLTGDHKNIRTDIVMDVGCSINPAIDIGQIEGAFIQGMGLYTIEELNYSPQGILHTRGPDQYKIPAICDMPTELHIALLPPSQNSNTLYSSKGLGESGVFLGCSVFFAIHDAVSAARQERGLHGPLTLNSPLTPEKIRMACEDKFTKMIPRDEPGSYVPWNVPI

panel of 59 kinases = assay: Kinase panel; assay type: biochemical
GSK3β = GSK3β (Homo sapiens, UniProt P49841); assay: Kinase panel, GSK3β; assay type: biochemical; conditions: at 1μM
Chain of GSK3β (P49841 whole entry, species assumed): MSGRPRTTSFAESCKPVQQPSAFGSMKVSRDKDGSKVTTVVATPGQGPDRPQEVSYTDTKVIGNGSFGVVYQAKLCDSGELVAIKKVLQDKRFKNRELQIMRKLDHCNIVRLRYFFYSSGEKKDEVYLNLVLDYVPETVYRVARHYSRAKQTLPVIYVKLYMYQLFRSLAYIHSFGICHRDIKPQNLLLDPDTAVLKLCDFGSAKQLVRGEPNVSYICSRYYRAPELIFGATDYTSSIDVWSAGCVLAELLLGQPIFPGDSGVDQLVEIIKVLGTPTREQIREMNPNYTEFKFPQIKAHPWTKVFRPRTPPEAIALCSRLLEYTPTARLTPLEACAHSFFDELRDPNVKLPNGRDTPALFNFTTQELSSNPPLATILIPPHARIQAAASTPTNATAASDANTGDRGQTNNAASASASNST

[2] = system: influenza A/Puerto Rico/8/34 (H1N1); conditions: mouse, in vivo, po, 30 mg/kg

## CCOC(=O)C1=C[C@@H](OC(CC)CC)[C@H](NC(C)=O)[C@@H](N)C1 [Oseltamivir, reference compound]
[1]
  A/Puerto Rico/8/34 SI (selectivity index, CC50/IC50): >4132

## c1ccc2cnncc2c1 [phthalazine]
Aldehyde oxidase (AO)
  Aldehyde oxidase (AO) metabolism in human liver cytosol: AO metabolism in the normal range

## O=C(O)[C@H]1C2CCC(CC2)[C@@H]1Nc1nc(-c2c[nH]c3c(F)cc(Cl)cc23)ncc1F [Compound 11b, (2S,3S)-3-((2-(5-chloro-7-fluoro-1H-indol-3-yl)-5-fluoropyrimidin-4-yl)amino)bicyclo-[2.2.2]octane-2-carboxylic acid]
[1]
  A/Puerto Rico/8/34 SI (selectivity index, CC50/IC50): >485

## O=C(O)[C@H]1C2CCC(CC2)[C@@H]1Nc1nc(-c2c[nH]c3c(F)cc(F)cc23)ncc1F [Compound 11a, (2S,3S)-3-((2-(5,7-difluoro-1H-indol-3-yl)-5-fluoropyrimidin-4-yl)amino)bicyclo [2.2.2]octane-2-carboxylic acid]
Panel of 59 kinases
  Activity across a panel of 59 kinases: inactive
GSK3β
  GSK3β inhibition: no inhibition
[2]
  Body weight course: regained weight from day 11

## N#Cc1cc(F)c2[nH]cc(-c3ncc(F)c(N[C@H]4C5CCC(CC5)[C@@H]4C(=O)O)n3)c2c1 [Compound 11d, (2S,3S)-3-((2-(5-cyano-7-fluoro-1H-indol-3-yl)-5-fluoropyrimidin-4-yl)amino) bicyclo[2.2.2]octane-2-carboxylic acid]
[1]
  A/Puerto Rico/8/34 SI (selectivity index, CC50/IC50): >612
